From PubChem BioAssay AID1918932 (Molecular Pharmacology Branch, DTP, NCI, 2023)
pIC50: −log10 of the molar value. “And” between values parts separate entries of the source, which are not always exact repeats. Identical values can stand only once.

Tested on: 171881-019-R-J1-PDC complex spheroid viability
Assay: Anticancer human tumor 171881-019-R-J1-PDC patient-derived invasive breast carcinoma cell line growth inhibition
Conditions: for viability, T/C: stronger effect = lower value; active = viability on the fitted dose curve at most 10% of control; inactive = the rest
In short: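 Drug combinations with the LSD1 inhibitor iadademstat tested on tumor cells co-cultured as spheroids with endothelial cells and mesenchymal stem cells. Concentrations descended in half-log increments from clinical Cmax or 10 microM.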

[1] = curve of first compound, second compound 0.1 µM
[2] = curve of first compound, second compound 0.316 µM
[3] = curve of first compound, second compound 1 µM
[4] = curve of first compound, second compound 3.16 µM
[5] = curve of first compound, second compound 10 µM
[6] = second compound 0.1 µM, first compound 0.000316 µM
[7] = second compound 0.1 µM, first compound 0.001 µM
[8] = second compound 0.1 µM, first compound 0.00316 µM
[9] = second compound 0.1 µM, first compound 0.01 µM
[10] = second compound 0.1 µM, first compound 0.0316 µM
[11] = second compound 0.1 µM, first compound 0.1 µM
[12] = second compound 0.316 µM, first compound 0.000316 µM
[13] = second compound 0.316 µM, first compound 0.001 µM
[14] = second compound 0.316 µM, first compound 0.00316 µM
[15] = second compound 0.316 µM, first compound 0.01 µM
[16] = second compound 0.316 µM, first compound 0.0316 µM
[17] = second compound 0.316 µM, first compound 0.1 µM
[18] = second compound 1 µM, first compound 0.000316 µM
[19] = second compound 1 µM, first compound 0.001 µM
[20] = second compound 1 µM, first compound 0.00316 µM
[21] = second compound 1 µM, first compound 0.01 µM
[22] = second compound 1 µM, first compound 0.0316 µM
[23] = second compound 1 µM, first compound 0.1 µM
[24] = second compound 3.16 µM, first compound 0.000316 µM
[25] = second compound 3.16 µM, first compound 0.001 µM
[26] = second compound 3.16 µM, first compound 0.00316 µM
[27] = second compound 3.16 µM, first compound 0.01 µM
[28] = second compound 3.16 µM, first compound 0.0316 µM
[29] = second compound 3.16 µM, first compound 0.1 µM
[30] = second compound 10 µM, first compound 0.000316 µM
[31] = second compound 10 µM, first compound 0.001 µM
[32] = second compound 10 µM, first compound 0.00316 µM
[33] = second compound 10 µM, first compound 0.01 µM
[34] = second compound 10 µM, first compound 0.0316 µM
[35] = second compound 10 µM, first compound 0.1 µM
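Also: spheroids exposed to agents for 7 days after 3 days growth.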

O=C(C=Cc1cccc(S(=O)(=O)Nc2ccccc2)c1)NO + NC1CCC(NC2CC2c2ccccc2)CC1
active: viability, T/C (second compound 0.1 µM, first compound 0.949 µM) 10.8% | viability, T/C (second compound 0.1 µM, first compound 3 µM) 0.16% | viability, T/C (second compound 0.316 µM, first compound 0.949 µM) 5.13% | viability, T/C (second compound 0.316 µM, first compound 3 µM) 0.17% | viability, T/C (second compound 1 µM, first compound 3 µM) 5.62% | viability, T/C (second compound 3.16 µM, first compound 0.949 µM) 9.02% | viability, T/C (second compound 3.16 µM, first compound 3 µM) 0.15% | viability, T/C (second compound 10 µM, first compound 0.949 µM) 7.76% | viability, T/C (second compound 10 µM, first compound 3 µM) 0.33%
inactive: viability, T/C (second compound 0.1 µM, first compound 0.00949 µM) 81.7% | viability, T/C (second compound 0.1 µM, first compound 0.03 µM) 86.9% | viability, T/C (second compound 0.1 µM, first compound 0.0949 µM) 112% | viability, T/C (second compound 0.1 µM, first compound 0.3 µM) 69.3% | viability, T/C (second compound 0.316 µM, first compound 0.00949 µM) 92.8% | viability, T/C (second compound 0.316 µM, first compound 0.03 µM) 104% | viability, T/C (second compound 0.316 µM, first compound 0.0949 µM) 112% | viability, T/C (second compound 0.316 µM, first compound 0.3 µM) 63.5% | viability, T/C (second compound 1 µM, first compound 0.00949 µM) 101% | viability, T/C (second compound 1 µM, first compound 0.03 µM) 108% | viability, T/C (second compound 1 µM, first compound 0.0949 µM) 100% | viability, T/C (second compound 1 µM, first compound 0.3 µM) 59% | viability, T/C (second compound 1 µM, first compound 0.949 µM) 10.2% | viability, T/C (second compound 3.16 µM, first compound 0.00949 µM) 93.4% | viability, T/C (second compound 3.16 µM, first compound 0.03 µM) 105% | viability, T/C (second compound 3.16 µM, first compound 0.0949 µM) 97% | viability, T/C (second compound 3.16 µM, first compound 0.3 µM) 58.9% | viability, T/C (second compound 10 µM, first compound 0.00949 µM) 84.1% | viability, T/C (second compound 10 µM, first compound 0.03 µM) 93% | viability, T/C (second compound 10 µM, first compound 0.0949 µM) 111% | viability, T/C (second compound 10 µM, first compound 0.3 µM) 59.1%
6.43: pIC50 [3] | pIC50 [4]
6.44: pIC50 [5]
6.41: pIC50 [2]
6.36: pIC50 [1]

Cn1ncnc1C1c2n[nH]c(=O)c3cc(F)cc(c23)NC1c1ccc(F)cc1 (configuration not stated) + NC1CCC(NC2CC2c2ccccc2)CC1
inactive: viability, T/C [6] 92.3% | viability, T/C [7] 79.1% | viability, T/C [8] 88.4% | viability, T/C [9] 79.3% | viability, T/C [10] 81.4% | viability, T/C [11] 85.7% | viability, T/C [12] 82.1% | viability, T/C [13] 76.3% | viability, T/C [14] 69.3% | viability, T/C [15] 71.5% | viability, T/C [16] 81.8% | viability, T/C [17] 76.7% | viability, T/C [18] 78.9% | viability, T/C [19] 85.5% | viability, T/C [20] 70.7% | viability, T/C [21] 71.7% | viability, T/C [22] 73.5% | viability, T/C [23] 79.9% | viability, T/C [24] 90% | viability, T/C [25] 78.8% | viability, T/C [26] 59.2% | viability, T/C [27] 86.7% | viability, T/C [28] 78.8% | viability, T/C [29] 85.7% | viability, T/C [30] 73% | viability, T/C [31] 84.5% | viability, T/C [32] 71% | viability, T/C [33] 76.3% | viability, T/C [34] 72.6% | viability, T/C [35] 88.6%
< 7.00: pIC50 [1] | pIC50 [2] | pIC50 [3] | pIC50 [4] | pIC50 [5]

Nc1ncn(C2CC(O)C(CO)O2)c(=O)n1 (configuration not stated)
< 6.00: pIC50 (curve of compound)
inactive: viability, T/C (compound 0.00316 µM) 109% and 97.4% | viability, T/C (compound 0.01 µM) 122% and 97.5% | viability, T/C (compound 0.0316 µM) 128% and 95.1% | viability, T/C (compound 0.1 µM) 130% and 93.4% | viability, T/C (compound 0.316 µM) 120% and 91.2% | viability, T/C (compound 1 µM) 105% and 81.2%

CC(C)CC(NC(=O)CNC(=O)c1cc(Cl)ccc1Cl)B1OC(=O)CC(CC(=O)O)(C(=O)O)O1 (configuration not stated) + NC1CCC(NC2CC2c2ccccc2)CC1
8.44: pIC50 [1] | pIC50 [3]
8.49: pIC50 [2]
8.43: pIC50 [5]
active: viability, T/C [10] 3.51% | viability, T/C [11] 4.11% | viability, T/C [16] 3.3% | viability, T/C [17] 1.04% | viability, T/C [22] 3.7% | viability, T/C [23] 1% | viability, T/C [28] 3.26% | viability, T/C [29] 0.97% | viability, T/C [33] 8.46% | viability, T/C [34] 1.96% | viability, T/C [35] 0.65%
8.42: pIC50 [4]
inactive: viability, T/C [6] 87.4% | viability, T/C [7] 86.8% | viability, T/C [8] 54.9% | viability, T/C [9] 13.2% | viability, T/C [12] 84.8% | viability, T/C [13] 83.8% | viability, T/C [14] 49.8% | viability, T/C [15] 11.8% | viability, T/C [18] 79% | viability, T/C [19] 82.2% | viability, T/C [20] 54.5% | viability, T/C [21] 13.6% | viability, T/C [24] 91.7% | viability, T/C [25] 90.8% | viability, T/C [26] 57.1% | viability, T/C [27] 12.4% | viability, T/C [30] 86.1% | viability, T/C [31] 94.2% | viability, T/C [32] 56.2%
